Laboratory results from patent US8367659B2, “Oxazinyl isoflavonoid compounds, medicaments and use” (Marshall Edwards, Inc., priority 2007, dated 2013).
“Also recorded” adds a separate entry of the source. Read-outs that look alike come from different tables or passages of the source.

Tests used:
[1] = system: red blood cells (RBC); test: Peroxyl radical (AAPH)-induced red blood cell lysis; type: cell-based; conditions: for Time taken to reach half-lysis, time: test compounds at 10 μM, vehicle 40.0
Method: Freshly collected heparinised venous blood (10 ml, on ice) was aliquotted into 1.8 ml sterile Eppendorf tubes and centrifuged for 10 minutes at 2600 rpm at 4° C. Plasma and buffy coat layers were removed (approximately […]) and packed red blood cells (RBC) were then washed by the addition of […], ice cold PBS. This washing procedure was repeated twice. Packed RBC were resuspended by the addition of 900 ml of ice-cold, sterile PBS (and termed RBC stock). RBC stocks were stored at 4° C. for a maximum of three days. All working suspensions of RBC were prepared fresh daily by diluting […] of RBC stock into 10 ml of ice-cold, sterile PBS and […] added to each well.
Stocks of AAPH were freshly prepared for individual experiments as follows. AAPH (1.22 gm) was dissolved in 7.5 ml of PBS to yield a 4× stock at 600 mM and […] aliquots (final concentration of 150 mM) were then added to each well to initiate the lysis assay. Stock solutions of test compounds (40 mM in 100% DMSO) were diluted in sterile PBS to yield final concentrations of […] per well. Appropriate controls were included in each experiment. All compound dilutions were adjusted to give final DMSO concentrations in each well of 0.25%. Peroxy-induced RBC lysis assays were performed in 96-flat bottom well microtitre plates with a total volume of […] per well. Turbidity of RBC suspensions were monitored using a Tecan microplate reader at 690 nm (37° C.) with gentle vortexing. Assays were performed in quadruplicate and readings were taken every 5 minutes over 5 hours. RBC lysis curves were constructed by plotting absorbance (mean of 4 readings) against time. Time to half-lysis was calculated by taking the highest absorbance reading (no lysis) and the lowest absorbance reading (maximum lysis). The sum of these two readings divided by two gave the absorbance at half-lysis. Simple regression analysis was used to calculate the time at which half-lysis absorbance occurred.
This comparative study was conducted according to the assay method set out in the example at Section 3.3 above.

[2] = system: HPAC; test: Anti-cancer activity, HPAC pancreatic cancer cells (MTT); type: cell-based; conditions: Homo sapiens, 120 h, 5 days
[3] = system: NFκB-promoter activity in TNFa-stimulated THP-1 monocyte/macrophages; test: NFκB promoter activity in TNFα-stimulated THP-1 cells (beta-lactamase reporter); type: cell-based, human; conditions: for inhibition at 30 µM: Homo sapiens, THP-1, read-out: % inhibition compared to control; for inhibition at 30 µM / Inflammatory index: test compound 30 μM; for Inflammatory index: control 11.56 ± 0.49
Method: The assay utilizes a genetically modified THP-1 cell line and GeneBLAzer® beta-lactamase technology (Invitrogen Corp). The human THP-1 monocyte/macrophages contain a stably-transfected beta-lactamase reporter gene under control of the NFκB response element They respond to stimulation with TNF-a, which leads to activation of the NFκB signaling pathway. Co-incubation of cells with TNF-a and test material allows quantitative determination of the ability of test material to inhibit TNFa-stimulated beta-lactamase production. Inflammatory index is calculated as the ratio of beta-lactamase product to beta-lactamase substrate. In brief, genetically modified THP-1 cells were seeded into wells of a 96-well plate (50×10^3 cells/well) in the presence of RPMI 1640 medium (70 μl). TNFα was added to each well (10 μl) to give a final concentration of 7.5 ng/ml. Dialyzed bovine serum was added (10 μl). Compounds dissolved in DMSO (10 μL) were then added (5 wells for each compound). Each plate contained a no-cell control (4 wells), a no-serum control (4 wells) and two serum controls. Plates were incubated for 5 h at 37° C. to allow for NFκB-stimulated beta-lactamase production. LiveBLAzer™ FRET B/G Substrate (CCF4-AM) substrate was then added to assay. CCF4-AM is a Forster resonance energy transfer (FRET) based substrate for beta-lactamase developed by Invitrogen Corp. Once CCFA-AM enters a cell, it is converted to negatively charged CCF4 by endogenous esterases. Excitation of this substrate at 409 nm leads to efficient FRET between the coumarin and fluorescein moieties, resulting in a green fluorescence detectable at 530 nm. The presence of beta-lactamase leads to cleavage of CCF4 and results in a loss of FRET, resulting in a robust blue fluorescent signal detectable at 460 nm. Thus, activity of beta-lactamase (a marker of NFκB-promoter activity) is measured as a product to substrate ratio (blue/green fluorescence ratio: 460 nm/530 nm). The determination of inflammatory index has a within-plate CV of 2.1% and a between-plate CV of 8.9% This comparative study was conducted according to the assay method set out in the example at Section 2.4 above.

[4] = Free radical scavenging with DPPH; conditions: for EC50: DPPH, read-out: Free radical scavenging ability EC50
Procedure, shortened: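 Compounds reacted with DPPH in ethanol for 20 min, screened at 100 μM, and absorbance at 517 nm compared with a DPPH-ethanol blank. IC50 was taken as the concentration giving a 0.6 absorbance change, with 1.2 units representing total scavenging.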

SMILES: Oc1ccc(C2=Cc3cc4c(cc3OC2)OCN(Cc2ccccc2)C4)cc1 [Compound 1, 4-(3-Benzyl-2,3,4,8-tetrahydrochromeno[6,7-e][1,3]oxazin-7-yl)phenol]
- Time taken to reach half-lysis, time ([1]; Table 8): 141.6 min
- Time taken to reach half-lysis, time ([1]; comparative, Table 14): 141.6 min
- IC50 [2]: 18.2 ± 8.1 µM
- inhibition at 30 µM [3]: 45.5%
- Inflammatory index [3]: 6.31 ± 0.36

SMILES: CC(c1ccccc1)N1COc2cc3c(cc2C1)C=C(c1ccc(O)cc1)CO3 (stereo not shown) [Compound 2, 4-(3-(1-Phenylethyl)-2,3,4,8-tetrahydrochromeno[6,7-e][1,3]oxazin-7-yl)phenol]
- EC50 ([4]; 20 minutes, absorbance 517 nm, Table 4): 21.4 µM
- antioxidant activity, AAPH-induced time to half-lysis of red blood cells [1]: delaying the AAPH-induced time to half-lysis
- Time taken to reach half-lysis, time ([1]; Table 8): 124.3 min
- IC50 [2]: 18.3 ± 11 µM
- inhibition at 30 µM [3]: 34.8%
- Inflammatory index [3]: 7.54 ± 0.17

SMILES: Oc1cccc(C2=Cc3ccc(O)cc3OC2)c1 [Compound 37-DHE, 3′,7-dihydroxy-isoflav-3-ene, reference compound]
- free radical scavenging / antioxidant activity in DPPH screen ([4]; 100 μM, ΔAbs>0.3 criterion): free radical scavenging activity; also recorded: potent free radical scavenging ability
- EC50 ([4]; comparative, Table 13): 55 µM
- antioxidant activity, AAPH-induced time to half-lysis of red blood cells [1]: delaying the AAPH-induced time to half-lysis
- Time taken to reach half-lysis, time ([1]; comparative, Table 14): 126.6 min
- NFκB inhibition ([3]; 30 μM, FIG. 19): inhibited NFκB
